The text below walks through data of PMC13065080, “Discovery of a potent anti-Zika virus benzamide series targeting the viral protein NS4B” (PLOS Pathogens, 2026).

Where two headings read alike, the source gives them in different places. Where only a bound is given, the exact number is not on record here.

One series concerns ZIKV-RLuc. The experiment in a line: microbe, parasite or virus in culture. It is filed as cell-based, Zika virus.
The subject of series [1] is ZIKV PLCal. The experiment in a line: CPE-based anti-ZIKV concentration-response assay (96-well). It is filed as cell-based, Zika virus.
For the next series, the system named is ZIKV-RLuc NS4B A245T. It is filed as cell-based, Zika virus.
A short description of another series: in vitro. The note with it: African green monkey, CC50 Vero76.
Another series deals with ZIKV-RLuc NS4B V241L. Format: cell-based, Zika virus.
A further series has as its system ZIKV-RLuc NS4B V248G. Format: cell-based, Zika virus.
Series [2] concerns ZIKV PLCal. The experiment in a line: Virus yield (titer) reduction assay in Huh 7.5.1 cells. Format: cell-based, Zika virus. The following applies: 1 µM.
Another series addresses ZIKV NS4B (Zika virus, UniProt A0A142I5B9). The experiment in a line: biochemical. It is filed as binding.
[3] abbreviates: wild type ZIKV-RLuc, Vero 76, MOI 0.1, three days, read-out: EC50 ZIKV-RLuc.
Where [4] appears, read: Vero 76, MOI 0.05, 3-day incubation, CellTiter-Glo, read-out: EC50-CPE ZIKV-PLCal.
The mark [5] stands for this setting: Zika virus, Vero 76, 72 h, wild type ZIKV-RLuc, Vero 76, MOI 0.1, three days, read-out: EC50 ZIKV-RLuc.
Where [6] appears, read: Zika virus, Fig 7, read-out: RLuc EC50.
The mark [7] stands for this setting: Zika virus, Fig 7, read-out: CPE EC50.
Setting [8] is: Zika virus, 72 h, Vero 76, MOI 0.05, 3-day incubation, CellTiter-Glo, read-out: EC50-CPE ZIKV-PLCal.

The compound `CCc1ccc(C(=O)NC2CC3CCC2C3)cc1` (stereo not drawn) [MWAC-3996, N-((exo)-bicyclo[2.2.1]heptan-2-yl)-4-ethylbenzamide] yielded a CC50 in the series with Vero76 above 50 µM. For the same compound, the results for the concentration for a half-maximal effect (EC50) in the series on ZIKV-RLuc (setting [3]) and in the series with ZIKV PLCal [1] (setting [4]) were 4.88 ± 1.36 µM and 27.1 ± 16.8 µM, respectively.
With `CC(C)(C)c1ccc(C(=O)N[C@H]2C[C@H]3CC[C@@H]2C3)cc1` (relative stereo) [MWAC-3992, N-((endo)-bicyclo[2.2.1]heptan-2-yl)-4-(tert-butyl)benzamide], the EC50 in the series with ZIKV-RLuc NS4B A245T turned out to be 2.77 ± 0.31 µM; with ZIKV-RLuc (setting [5]) it was 0.34 ± 0.018 µM; in the series on ZIKV-RLuc (setting [6]), 0.58 µM; with ZIKV-RLuc NS4B V241L, 27.5 µM; with ZIKV PLCal [1] (setting [7]) it was 0.94 µM; in the series with ZIKV-RLuc NS4B V248G, 16.8 ± 2.54 µM. The compound also had a CC50 in “in vitro” of 63 µM. In the series with ZIKV PLCal [2], the “VYR: Virus Yield reduction (Log 10)” value was -1.20 ± 0.09 Log 10.
In the series on Vero76, `O=C(NC1CC2CCC1C2)c1ccc(C(F)(F)F)cc1` (stereo not drawn) [MWAC-3997, N-((exo)-bicyclo[2.2.1]heptan-2-yl)-4-(trifluoromethyl)benzamide] had a CC50 above 50 µM. Besides, the EC50 in the series with ZIKV-RLuc (setting [3]) was determined as 4.06 ± 1.17 µM; in the series with ZIKV PLCal [1] (setting [4]) it was 39 ± 15.3 µM.
Regarding `CC(C)(C)c1ccc(C(=O)NC2CC3CCC2C3)cc1` (stereo not drawn) [MWAC-3508], the 50% effective concentration (EC50) in the series on ZIKV-RLuc NS4B A245T turned out to be 0.81 ± 0.11 µM; in the series with ZIKV-RLuc (setting [5]), 0.11 ± 0.002 µM; with ZIKV-RLuc (setting [6]), 0.15 µM; with ZIKV-RLuc NS4B V241L, 13.2 ± 1.87 µM; with ZIKV PLCal [1] (setting [7]), 0.36 µM; in the series on ZIKV-RLuc NS4B V248G it was 4.37 ± 0.37 µM. Moreover, the CC50 in the series “in vitro” was above 50 µM. Further, the “VYR: Virus Yield reduction (Log 10)” value in the series on ZIKV PLCal [2] was -0.93 ± 0.07 Log 10.
`CC(C)(C)c1ccc(C(=O)NC2CCCCC2)cc1` [MWAC-4000, 4-(tert-butyl)-N-cyclohexylbenzamide]: the 50% effective concentration (EC50) worked out at 0.68 ± 0.09 µM in the series with ZIKV-RLuc NS4B A245T; 0.03 ± 0.003 µM in the series on ZIKV-RLuc (setting [5]); 0.09 µM in the series with ZIKV-RLuc (setting [6]); 21.3 ± 4.87 µM in the series on ZIKV-RLuc NS4B V241L; 0.21 µM in the series on ZIKV PLCal [1] (setting [7]); 6.6 ± 0.53 µM with ZIKV-RLuc NS4B V248G. Besides, the “Fold-increase / fold-change of EC50, NS4B A245T vs wild type” value in the series with ZIKV-RLuc NS4B A245T came to 21.2. The CC50 in the series “in vitro” is above 50 µM. Moreover, the “Fold-change of EC50, Wt” value with ZIKV-RLuc (ZIKV RLuc assay, reference) is recorded as 1. The “Fold-increase / fold-change of EC50, NS4B V241L vs wild type” value in the series on ZIKV-RLuc NS4B V241L is listed as 659.3. In addition, the “Fold-increase / fold-change of EC50, NS4B V248G vs wild type” value in the series with ZIKV-RLuc NS4B V248G is 204.7. Further, the “VYR: Virus Yield reduction (Log 10)” value with ZIKV PLCal [2] is -1.67 ± 0.10 Log 10.
In the case of `Cc1ccc(C(=O)NC2CC3CCC2C3)cc1` (stereo not drawn) [MWAC-4010, N-((exo)-bicyclo[2.2.1]heptan-2-yl)-4-methylbenzamide], the CC50 with Vero76 was above 50 µM.
Take `CC(C)(C)c1ccc(C(=O)N[C@@H]2C[C@H]3CC[C@@H]2C3)cc1` (relative stereo) [MWAC-3989, N-((exo)-bicyclo[2.2.1]heptan-2-yl)-4-(tert-butyl)benzamide]: the EC50 in the series with ZIKV-RLuc NS4B A245T was found to be 0.45 ± 0.05 µM; in the series with ZIKV-RLuc (setting [5]) it was 0.07 ± 0.007 µM; in the series with ZIKV-RLuc (setting [6]) it was 0.115 µM; in the series on ZIKV-RLuc (setting [3]), 0.13 ± 0.068 µM; with ZIKV-RLuc NS4B V241L, 10.6 ± 2.04 µM; in the series on ZIKV PLCal [1] (setting [8]), 0.46 ± 0.1 µM. Besides, the EC50 in the series with ZIKV PLCal [1] (setting [7]) came out at 0.34 µM; with ZIKV-RLuc NS4B V248G it was 4 ± 0.76 µM. This compound registered a CC50 in the series “in vitro” above 50 µM. In the series with ZIKV PLCal [2], the “VYR: Virus Yield reduction (Log 10)” value was -0.18 ± 0.14 Log 10.
On ZIKV NS4B, `CC(C)(C)c1ccc(C(=O)N2C[C@H](C(=O)O)[C@@H](c3cccc(F)c3)C2)cc1` (relative stereo) [MWAC-3533] displayed a Kd of around 35 µM. Further, the “19F-NMR signal change with ZIKV NS4B” value on ZIKV NS4B (compound 50 µM) is given as “shifted by the presence of ZIKV NS4B in a concentration-dependent manner”. The concentration giving a half-maximal response (EC50) in the series on ZIKV-RLuc (Zika virus, Vero 76, 72 h, read-out: EC50 ZIKV-RLuc) is around 16 µM.
`CC(C)(C)c1ccc(C(=O)NC2CCS(=O)(=O)C2)cc1` (stereo not drawn) [MWAC-3506] yielded a CC50 in “in vitro” above 50 µM. In addition, the EC50 with ZIKV-RLuc (setting [5]) and in the series on ZIKV PLCal [1] (setting [8]) was above 50 µM each time.

The term EC50 denotes the concentration needed to bring the measured effect to its halfway point. As usually defined, the Kd is the concentration at which binding is half-saturated.
